Laboratory results as given in patent publication US5747511A, “Benzothiophene analogs as antiviral agents” (SRI International, priority 1995, dated 1998).

Tests used:
MRC-5 cells = assay: evidence of cytotoxicity by microscopy after 72 hours; format: cell-based; parameters: unit not given beside the values; details: 37° C., microscopic cytotoxicity
Procedure: (§1) Continuous passaged MRC-5 cells obtained from the American Type Culture Collection (Bethesda, Md.) were used for testing of herpes-type virus, with growth medium consisting of Minimum Essential Medium (MEM) supplemented with 0.1% NaHCO3 and […] gentamicin.
(§2) To a 96 well microtiter plate containing an established 24 hour monolayer of cells from which the medium has been decanted was added 0.1 mL of varying (one-half log10) concentrations of test compound, which incubated on the cell 15 minutes, after which 0.1 mL of virus in a concentration of 320 cell culture 50% infectious doses (CCID50)/0.1 mL was added. The plate was covered with plastic wrap and incubated at 37° C. The cells were examined microscopically after 72 hours for evidence of cytotoxicity and for viral cytopathic effect (CPE).

cytomegalovirus = assay: in vitro antiviral evaluation, viral cytopathic effect (CPE) by microscopy after 72 hours; format: cell-based; details: TI column of Table 1 (equals CD50/ED50); 4320 min
Procedure: The compounds prepared in the previous Examples were evaluated in vitro as antiviral agents against cytomegalovirus, as follows.
The herpes virus strain employed was Strain McCrae of type 1 herpes (thymidine kinase positive virus) (HSV-1TK^+). This strain was prepared and titered in MA-104 cells and frozen at -90° C. until use. Also used were strain HF (HSV-1TK^-), strain E194 (HSV-2), NJB strain (MCMV), and strain AD169 (HCMV).
as §1, §2

Nc1cc2ccncc2c2sc3ccccc3c12 [Compound 1]
CD50 (MRC-5 cells): > 10 | TI (cytomegalovirus): > 100
